Source: patent US6495589B2, “Somatostatin antagonists and agonists that act at the SST subtype 2 receptor” (Pfizer Inc., priority 2000, dated 2002)
Ends that are not written are not given here.

Tested on: GH4C1 cells
Assay: Rat pituitary assay for somatostatin receptor antagonists (cAMP content of GH4C1 cells)
Assay type: cell-based
Conditions: 100 nM VIP as stimulus
Description: This assay is designed to quantitate the activity of antagonists of somatostatin that interact directly at the somatostatin receptor. The assay facilitates discovery of agents which increase growth hormone secretion by modulating the inhibitory effects of somatostatin. As aforementioned, somatostatin (also abbreviated SRIF) inhibits GH secretion in the anterior pituitary by binding to a high affinity membrane-bound (and G-protein coupled) receptor which is coupled negatively to adenyl cyclase, thereby reducing intracellular levels of cAMP that would otherwise facilitate, for example, secretion/release of GH from cytoplasmic granules. […] The screen is designed to quantitate the ability of test agents to reverse SRIF's inhibition of the elevated intracellular cAMP levels produced by VIP.
In particular, cyclic AMP (cAMP) content of the pituitary cell line GH4C1 was used to differentiate somatostatin agonists from antagonists. […] This afforded a convenient way to conduct a homogenous immunoradiometric assay of cAMP content in cells lysed in situ, following incubation of the cells with test compound. cAMP content in the GH4C1 cells was determined according to the manufacturer's instructions, by comparison with standards at concentrations from 10 to 1,000 nM cAMP. […]
IC50 values are determined by polynomial regression and analzyed using a MACRO program. […]

VIP: Vasoactive intestinal peptide (Sigma V3628), endogenous peptide that stimulates GH secretion and activates adenylate cyclase (HSDAVFTDNYTRLRKQMAVKKYLNSILN-NH2; ends and bridges not checked; UniProt P01282 125-152, looked up)
cAMP content of the GH4C1 cells: increased
